Laboratory results: ChEMBL document CHEMBL2176884, “ATP-binding site of bacterial enzymes as a target for antibacterial drug design” (J Med Chem, 2011)
pIC50, pKd, pKi: −log10 of the molar value. Values after ≈ are worked out from the molar mass of the structure shown.

Assays:
Pantothenate synthetase [1] = target: T1, Pantothenate synthetase (Mycobacterium tuberculosis, UniProt P9WIL5); assay: Inhibition of Mycobacterium tuberculosis Pantothenate synthetase
T1 sequence (P9WIL5 whole entry): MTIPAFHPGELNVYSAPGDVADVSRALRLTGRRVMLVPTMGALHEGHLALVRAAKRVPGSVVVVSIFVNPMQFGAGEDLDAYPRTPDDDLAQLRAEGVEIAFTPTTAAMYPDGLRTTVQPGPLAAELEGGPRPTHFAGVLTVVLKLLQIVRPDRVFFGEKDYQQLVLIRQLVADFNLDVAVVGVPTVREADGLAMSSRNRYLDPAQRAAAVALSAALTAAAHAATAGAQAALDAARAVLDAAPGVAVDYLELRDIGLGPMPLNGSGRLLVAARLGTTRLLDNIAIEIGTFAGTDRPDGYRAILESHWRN

Pantothenate synthetase [2] = target: T1, Pantothenate synthetase; assay: Binding affinity to Mycobacterium tuberculosis Pantothenate synthetase
[3] = Inhibition of Staphylococcus sp. APH(3')-3a
[4] = Inhibition of EnvZ by strand-transfer assay
[5] = Inhibition of Escherichia coli His6-tagged ParC/ParE expressed in baculovirus-infected Sf9 cells by gel electrophoresis
[6] = target: T2, Virulence sensor histidine kinase PhoQ (Salmonella typhimurium (strain LT2 / SGSC1412 / ATCC 700720), UniProt P0DM80); assay: Inhibition of Salmonella typhimurium sensor kinase PhoQ; design: species or system Salmonella enterica subsp. enterica serovar Typhimurium
T2 sequence (P0DM80 whole entry): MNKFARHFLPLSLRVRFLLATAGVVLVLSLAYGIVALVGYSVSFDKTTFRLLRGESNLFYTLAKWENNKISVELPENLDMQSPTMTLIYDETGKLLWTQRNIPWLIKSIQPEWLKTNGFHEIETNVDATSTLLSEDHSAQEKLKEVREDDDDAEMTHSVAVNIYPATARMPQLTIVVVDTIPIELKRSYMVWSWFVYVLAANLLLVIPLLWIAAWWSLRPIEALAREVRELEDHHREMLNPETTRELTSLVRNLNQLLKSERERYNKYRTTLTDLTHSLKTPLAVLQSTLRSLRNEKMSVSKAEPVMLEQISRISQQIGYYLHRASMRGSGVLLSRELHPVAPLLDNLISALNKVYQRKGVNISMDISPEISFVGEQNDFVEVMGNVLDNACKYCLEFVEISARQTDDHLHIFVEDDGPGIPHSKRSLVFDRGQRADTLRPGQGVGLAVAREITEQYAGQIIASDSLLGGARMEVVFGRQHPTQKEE

[7] = Inhibition of Saccharomyces cerevisiae sensor kinase Sln1
[8] = Inhibition of Saccharomyces cerevisiae Hsp90
[9] = Inhibition of bacteria biotin carboxylase
[10] = Inhibition of DNA gyrase
Enterococcus sp. = assay: Antimicrobial activity against Enterococcus; format: functional
Staphylococcus sp. = assay: Antimicrobial activity against Staphylococcus; format: functional
[11] = Inhibition of Escherichia coli ACCase
Haemophilus influenzae = assay: Antimicrobial activity against Haemophilus influenzae after broth microdilution method; format: functional

SMILES: CC(C)(C)C(=O)C(=O)NS(=O)(=O)OC[C@H]1O[C@@H](n2cnc3c(N)ncnc32)[C@H](O)[C@@H]1O
- pKi (Pantothenate synthetase [1]): 6.52

SMILES: COc1ccc2c(c1)cc(C)n2CC(=O)O
- pKd (Pantothenate synthetase [2]): 3.10

SMILES: NCCNS(=O)(=O)c1cccc2cnccc12
- pKi [3]: 4.31

SMILES: CO[C@@H]1[C@@H](OC(N)=O)[C@@H](O)[C@H](Oc2ccc3c(O)c(NC(=O)c4ccc(O)c(CC=C(C)C)c4)c(=O)oc3c2C)OC1(C)C [NOVOBIOCIN]
- pKd [4]: 3.92
- pIC50 [5]: 6.68

SMILES: COc1ccc2c(c1)cc(CNC(=O)c1cc3ccccc3o1)n2CC(=O)O
- pKd (Pantothenate synthetase [2]): 6.07

SMILES: N=C(N)NCCNS(=O)(=O)c1cccc2cnccc12
- pKi [3]: 4.31

SMILES: C[C@@H]1C[C@H]2O[C@@H]2/C=C\C=C\C(=O)Cc2c(Cl)c(O)cc(O)c2C(=O)O1 [RADICICOL]
- pKd [6]: 3.15
- pIC50 [7]: 3.90
- pKd [8]: 7.72

SMILES: COCC(C)(C)C(O)C(=O)NS(=O)(=O)OC[C@H]1O[C@@H](n2cnc3c(N)ncnc32)[C@H](O)[C@@H]1O (stereo partly specified)
- pKi (Pantothenate synthetase [1]): 6.52

SMILES: O=S(=O)(c1ccc(Cl)c2ccncc12)N1CCNCC1
- pKi [3]: 4.31

SMILES: COCCC(O)C(=O)NS(=O)(=O)OC[C@H]1O[C@@H](n2cnc3c(N)ncnc32)[C@H](O)[C@@H]1O (stereo partly specified)
- pKi (Pantothenate synthetase [1]): 6.52

SMILES: CC(C)(C)[C@@H](N)C(=O)NS(=O)(=O)OC[C@H]1O[C@@H](n2cnc3c(N)ncnc32)[C@H](O)[C@@H]1O
- pKi (Pantothenate synthetase [1]): 6.52

SMILES: Cc1ccccc1CN(Cc1ccc2c(c1)OCCO2)C(=O)c1cnc(N)o1
- pIC50 [9]: 8.15

SMILES: COC(=O)C1CCCC(NCc2n[nH]c3cccc(OCc4cc(Cl)cc(Cl)c4)c23)C1 (stereo unspecified)
- IC50 [10]: 0.25 µg/mL (≈ 0.541 µM)
- MIC (Enterococcus sp.): 4 µg/mL (≈ 8.65 µM)
- MIC (Staphylococcus sp.): 4 µg/mL (≈ 8.65 µM)

SMILES: C[C@H]1CNCCN1S(=O)(=O)c1cccc2cnccc12
- pKi [3]: 4.31

SMILES: CC(C)(C)C(O)C(=O)NS(=O)(=O)OC[C@H]1O[C@@H](n2cnc3c(N)ncnc32)[C@H](O)[C@@H]1O (stereo partly specified)
- pKi (Pantothenate synthetase [1]): 6.52

SMILES: COc1cccc(OC)c1-c1cc2cnc(N)nc2nc1N
- pIC50 [11]: 7.55
- MIC (Haemophilus influenzae): 0.125 µg/mL (≈ 0.42 µM)

SMILES: NCCNS(=O)(=O)c1ccc(Cl)c2ccncc12
- pKi [3]: 4.31

SMILES: Cc1cc(=O)oc2cc(SCc3n[nH]c4cccc(OCc5ccc(C(C)(C)C)cc5)c34)ccc12
- MNEC [10]: 0.03 µg/mL

SMILES: Nc1ncc2cc(-c3c(Br)cccc3Br)c(N)nc2n1
- pIC50 [11]: > 8.30
- MIC (Haemophilus influenzae): 0.125 µg/mL (≈ 0.316 µM)
